{"source": "patent US8012938B2", "about": "“Dermatological and/or cosmetic composition containing polypeptides” (ISP Investments Inc., priority 2004, dated 2011)", "type_in_all_cases": "cell-based", "key": {"[1]": {"tested_on": "3T3-L1 cells", "experiment": "Oil red staining of lipid vacuoles of adipocytes", "conditions": "0.5% solution at 50 ppm", "experimental": "Undifferentiated 3T3-L1 preadipocyte cell lines were seeded in 8-well Lab-Tek slides (for oil red staining), in 12-well plates (for ATP measurement), in 24-well plates (for cAMP measurement) and in 6-well plates (for glycerol measurement) as well as with DMEM culture medium (4.5 g/l) containing antibiotics. These 3T3-L1 preadipocytes were capable of entering, under certain conditions, the terminal differentiation phase.\nOnce the 3T3-L1 cells had reached 100% confluence, they were differentiated by putting them into culture in various mediums, over a period of 6 to 8 days.\nDuring the first 2 days, cells were cultured in the presence of IBMX, dexamethasone, and insulin diluted in DMEM culture medium at 4.5 g/l. Then, they were cultured for two days only in the presence of insulin diluted in DMEM culture medium at 4.5 g/l and, finally, the cells were cultivated for 2 to 3 days in culture medium containing exclusively DMEM 4.5 g/l.\nCell differentiation in mature adipocytes was visualized by the appearance of lipid droplets in the cytoplasm of the cells.\nThe principle of this evaluative test on the effect of peptides rests on a microscopic observation of the number and size of lipid vacuoles of adipocytes after staining. Adipocytes were incubated or not in the presence of the substance to be tested.\n3T3-L1 cells, seeded in 8-well Lab-Teks, were treated with the peptide of SEQ ID NO:1, i.e. of sequence Pro-Leu-Asp-Thr-Ala-Lys-Val-Arg-Leu-Gln, representative of the peptide family according to the invention, placed in a 0.5% solution at 50 ppm. The active ingredient was added at various stages of culture: • At the start of the incubation and until the end of adipocyte differentiation (72 hours of culture until 100% confluence, then for the 6 days of differentiation); • 6 hours after incubation and until the end of cell differentiation (66 hours of culture until 100% confluence, then for the 6 days of differentiation); • Once cells differentiated in the adipocytes, they were treated with the active ingredient for 6, 24, or 48 hours. […]"}, "[2]": {"tested_on": "differentiated 3T3-L1 cells", "experiment": "Measurement of intracellular cAMP", "conditions": "0.5% solution at 50 ppm; 15 minutes, 30 minutes or 1 hour; compared to cells treated with isoproterenol 1 μM", "experimental": "The objective of this test was to measure the variation of the intracellular concentration of cAMP in adipocytes, in order to deduce a possible activation of the phenomenon of lipolysis.\nThe test was carried out on differentiated 3T3-L1 cells. These adipocytes were treated with the peptide of (SEQ ID NO: 1), i.e. of sequence Pro-Leu-Asp-Thr-Ala-Lys-Val-Arg-Leu-Gln, representative of the peptide family according to the invention, placed in a 0.5% solution at 50 ppm, for periods of 15 minutes, 30 minutes, or 1 hour. In parallel, differentiated 3T3-L1 cells were also treated with isoproterenol (an agent that induces lipolysis), at 1 μM, thus forming a positive control.\nAfter the various incubation periods, in the presence of the active ingredient being tested or in the presence of isoproterenol, the quantity of cAMP contained in adipocytes was measured using the “AMP Biotrak® EIA System” kit purchased from Amersham Biosciences as well as by a test principle, colorimetric ELISA. The kit made cell lysis possible through a solution allowing for the hydrolysis of cellular membranes and the release of intracellular cAMP in the medium. Followed by the binding of antibodies specific to intracellular cAMP extracted from samples, which is placed in competition with cAMP that has been coupled to the enzyme, peroxidase."}, "[3]": {"tested_on": "differentiated 3T3-L1 cells", "experiment": "Measurement of intracellular ATP", "conditions": "0.5% solution at 50 ppm; period up to 96 hours", "experimental": "The aim of this study was to determine the influence of the peptide according to the invention on the quantity of intracellular ATP. The study was carried out using an “ATP Bioluminescence Assay HS II” kit. Differentiated 3T3-L1 cells were treated with a 0.5% solution at 50 ppm, containing the peptide of SEQ ID NO: 1, representative of the peptide family according to the invention, for a period up to 96 hours. At the end of the incubation time, the wells were emptied of their medium and were rinsed with 2 ml of cold PBS before adding 250 μl of lysis buffer, provided by the kit. The cells were then scraped, and then collected separately in 14 ml tubes. Each well was rinsed with 2×500 μl of cold PBS and everything was again collected in the respective tubes. Each tube was then placed in the polytron for 10 seconds at 18000 rpm. From these samples, a dilution of 1/12000, using cold PBS, was carried out before each reading. ATP quantity assessment was performed on these samples: 50 μl of this dilution were placed in a luma-basin and 50 μl of […] were added. The reading of luminescence started after 10 seconds. The values were standardized compared to the quantity of proteins for each sample. Measurements were taken using a Biocounter M2010A LUMAC®/3M."}, "[4]": {"tested_on": "differentiated 3T3-L1 cells", "experiment": "Measurement of glycerol released by adipocytes", "conditions": "active ingredient at 0.5% (solution at 50 ppm); 1 h 30, 3 h, 5 h, 7 h and 24 h; versus control wells", "experimental": "The purpose of this study was to determine the influence of the peptide according to the invention on glycerol release by adipocytes, glycerol being the result of lipolysis.\nDifferentiated 3T3-L1 cells were treated with a 0.5% solution at 50 ppm, containing the peptide of SEQ ID NO:1, representative of the peptide family according to the invention, for periods of 1 h 30, 3 h, 5 h, 7 h and 24 h.\nThe concentration of glycerol was determined using a series of enzymatic reactions leading to the formation of NADH of which the produced quantity was evaluated by spectrophometric readings at 340 nm, the formation of NADH being proportional to the quantity of glycerol released in the culture medium. An internal control of 1 mM glycerol was also used. The values were standardized in comparison to the quantity of proteins for each sample."}, "[5]": {"conditions": "added at the start of incubation or 6 hours after incubation until end of differentiation, compared with control cells"}}, "note": "No end group written: not given here.", "data": [{"sequence": "PLDTAKVRLQ [SEQ ID NO:1, peptide fragment from the UCP family]", "values": [{"measurement": "cell morphology", "setting": "[1]; [5]", "result": "less round morphology"}, {"measurement": "content of intra-adipocyte lipid vesicles", "setting": "[1]; [5]", "result": "clearly decreased content of intra-adipocyte lipid vesicles"}, {"measurement": "reduction of intra-adipocyte lipid vesicles in mature adipocytes", "setting": "[1]; applied once differentiation was completed, for 6, 24 or 48 hours", "result": "no reduction was observed"}, {"measurement": "intracellular quantity of cAMP", "setting": "[2]", "result": "no increase"}, {"measurement": "amount of intracellular ATP", "setting": "[3]", "result": "lack of increase"}, {"measurement": "glycerol release by differentiated cells", "setting": "[4]", "result": "identical"}]}]}
